Laboratory results as given in US5968958A, “5-Methanesulfonamido-3H-isobenzofuran-1-ones as inhibitors of cyclooxygenase-2” (Merck Frosst Canada, Inc., priority 1997, dated 1999).
Read-outs that look alike come from different tables or passages of the source.

Columns and labels:
cyclooxygenase-2 = target: T1, cyclooxygenase-2 (Homo sapiens, UniProt P35354); experiment: Whole cell cyclooxygenase assay, PGE2 synthesis in human osteosarcoma 143 cells (COX-2); format: cell-based
T1 construct: human osteosarcoma 143 cells (which specifically express cyclooxygenase-2); endogenous in cells; host or cells: human osteosarcoma 143 cells
T1 sequence (P35354 18-604): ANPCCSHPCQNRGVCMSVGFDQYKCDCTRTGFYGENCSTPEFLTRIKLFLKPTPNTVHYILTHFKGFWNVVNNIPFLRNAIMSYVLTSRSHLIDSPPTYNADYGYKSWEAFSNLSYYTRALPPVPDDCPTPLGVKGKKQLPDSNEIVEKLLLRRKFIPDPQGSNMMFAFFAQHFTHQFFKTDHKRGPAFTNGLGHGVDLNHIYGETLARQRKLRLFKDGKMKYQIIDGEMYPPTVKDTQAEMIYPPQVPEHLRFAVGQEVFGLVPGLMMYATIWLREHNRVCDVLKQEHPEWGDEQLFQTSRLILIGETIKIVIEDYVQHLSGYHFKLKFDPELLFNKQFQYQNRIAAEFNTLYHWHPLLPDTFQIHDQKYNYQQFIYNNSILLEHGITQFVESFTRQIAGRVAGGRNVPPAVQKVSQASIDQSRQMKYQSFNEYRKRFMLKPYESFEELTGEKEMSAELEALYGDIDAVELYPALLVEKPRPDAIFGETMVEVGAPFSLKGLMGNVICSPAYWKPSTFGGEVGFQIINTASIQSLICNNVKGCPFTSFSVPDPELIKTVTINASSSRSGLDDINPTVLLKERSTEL
Experimental: (§1) Inhibition of Cyclooxygenase Activity
(§2) Compounds are tested as inhibitors of cyclooxygenase activity in whole cell cyclooxygenase assays. Both of these assays measure prostaglandin E2 synthesis in response to arachidonic acid, using a radioimmunoassay. Cells used for these assays are human osteosarcoma 143 cells (which specifically express cyclooxygenase-2) and human U-937 cells (which specifically express cyclooxygenase-1). In these assays, 100% activity is defined as the difference between prostaglandin E2 synthesis in the absence and presence of arachidonate.
(§3) In the assay, inhibition is determined by measuring the amount of prostaglandin E2 (PGE2) synthesized in the presence of arachidonic acid, cyclooxygenase-1 or cyclooxygenase-2 and a putative inhibitor. The IC50 values represent the concentration of putative inhibitor required to return PGE2 synthesis to 50% of that obtained as compared to the uninhibited control.

cyclooxygenase-1 = target: T2, cyclooxygenase-1 (Homo sapiens, UniProt P23219); experiment: Whole cell cyclooxygenase assay, PGE2 synthesis in human U-937 cells (COX-1); format: cell-based; conditions: inhibition of PGE2 production, arachidonic acid, radioimmunoassay
T2 construct: human U-937 cells (which specifically express cyclooxygenase-1); endogenous in cells; host or cells: human U-937 cells
T2 sequence (P23219 24-599): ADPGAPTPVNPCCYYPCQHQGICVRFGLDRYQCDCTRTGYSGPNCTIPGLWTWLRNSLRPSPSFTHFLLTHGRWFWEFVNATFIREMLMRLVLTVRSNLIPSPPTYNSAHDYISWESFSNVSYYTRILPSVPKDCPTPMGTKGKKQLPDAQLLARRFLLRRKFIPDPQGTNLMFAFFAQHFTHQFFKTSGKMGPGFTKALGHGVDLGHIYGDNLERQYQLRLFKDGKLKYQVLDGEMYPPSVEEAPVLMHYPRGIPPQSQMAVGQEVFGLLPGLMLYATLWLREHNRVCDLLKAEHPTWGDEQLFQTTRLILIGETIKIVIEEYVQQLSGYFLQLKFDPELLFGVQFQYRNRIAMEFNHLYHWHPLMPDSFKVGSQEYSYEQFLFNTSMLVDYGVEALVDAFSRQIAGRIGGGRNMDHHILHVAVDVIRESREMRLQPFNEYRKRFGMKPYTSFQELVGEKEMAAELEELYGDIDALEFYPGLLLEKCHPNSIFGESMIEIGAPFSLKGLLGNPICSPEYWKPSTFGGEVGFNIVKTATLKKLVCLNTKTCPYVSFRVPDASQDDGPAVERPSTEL
Experimental: as §1, §2, §3

Rat Paw edema = experiment: Rat Paw Edema Assay (carrageenan); format: in vivo, rat (male Sprague-Dawley); conditions: po, 1 hr before subplantar carrageenan (500 μg per paw), paw volume increase at 3 h
Experimental: Rat Paw Edema Assay--Protocol
Male Sprague-Dawley rats (150-200 g) are fasted overnight and are given po either vehicle (1% methocell or 5% Tween 80) or a test compound. One hr later, a line is drawn using a permanent marker at the level above the ankle in one hind paw to define the area of the paw to be monitored. The paw volume (V0) is measured using a plethysmometer (Ugo-Basile, Italy) based on the principle of water displacement. The animals are then injected subplantarly with 50 μl of 1% carrageenan solution in saline (FMC Corp, Maine) into the paw using an insulin syringe with a 25-gauge needle (i.e., 500 μg carrageenan per paw). Three h later, the paw volume (V3) is measured and the increases in paw volume (V3 -V0) are calculated. The animals are sacrificed by CO2 asphyxiation and the absence or presence of stomach lesions scored. Data is compared with the vehicle-control values and percent inhibition calculated. All treatment groups are coded to eliminate observer bias.

[1] = inhibition of PGE2 production, human osteosarcoma 143 cells, arachidonic acid, radioimmunoassay, read-out: Osteosarcoma cells (COX-2) IC50

IC50 (cyclooxygenase-2; [1]) [nM]	IC50 (cyclooxygenase-1) [nM]	IC50 (cyclooxygenase-2) [nM]	Compound	ED30 (Rat Paw edema) [mg/kg]
140	> 100000		CS(=O)(=O)Nc1cc2c(cc1Sc1nccs1)C(=O)OC2 [Example 3, 6-(2-Thiazolythio)-5-methanesulfonamido-3H-isobenzofuran-1-one]	
	> 100000	6	CCc1csc(Sc2cc3c(cc2NS(C)(=O)=O)COC3=O)n1 [Example 1, 6-(4-Ethyl-2-thiazolythio)-5-methanesulfonamido-3H-isobenzofuran-1-one]	0.16
36.7	> 100000		Cc1csc(Sc2cc3c(cc2NS(C)(=O)=O)COC3=O)n1 [Example 4, 5-Methanesulfonamido-6-(4-methyl-2-thiazolythio)-3H-isobenzofuran-1-one]	1
33	> 100000		CS(=O)(=O)Nc1cc2c(cc1Sc1ccc(Cl)cn1)C(=O)OC2 [Example 2, 6-(5-Chloro-2-pyridylthio)-5-methanesulfonamido-3H-isobenzofuran-1-one]	1.3
